Reference: US10835533B2, “1 -((3S,4R)-4-(3-fluorophenyl)-1-(2-methoxyethyl)pyrrolidin-3-yl)-3-(4-methyl-3-(2-methylpyrimidin-5-yl)-1-phenyl-1H-pyrazol-5-yl)urea as a TrkA kinase inhibitor” (Array BioPharma Inc., priority 2014, dated 2020)

Key:
Assay in all cases: KinaseProfiler kinase profiling
Format in all cases: biochemical
Settings in all cases: 10 μM, ATP near Km
[1] = target: T1, CSK (Homo sapiens, UniProt P41240)
T1 construct: purchased Millipore, Inc. (KinaseProfiler service)
Procedure, shortened: (§1)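 Mean of two replicates, shown as POC. Conditions: 10 μM compound, kinase-specific ATP approximately at Km.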

[2] = target: T2, Lyn (Homo sapiens, UniProt P07948)
T2 construct: purchased Millipore, Inc. (KinaseProfiler service)
Procedure, shortened: as §1

[3] = target: T3, Src (Homo sapiens, UniProt P12931)
T3 construct: purchased Millipore, Inc. (KinaseProfiler service)
Procedure, shortened: as §1

[4] = target: T4, Pim-1 (Homo sapiens, UniProt P11309)
T4 construct: purchased Millipore, Inc. (KinaseProfiler service)
Procedure, shortened: as §1

[5] = target: T5, ULK3 (Homo sapiens, UniProt Q6PHR2)
T5 construct: purchased Millipore, Inc. (KinaseProfiler service)
Procedure, shortened: as §1

[6] = target: T6, Axl (Homo sapiens, UniProt P30530)
T6 construct: purchased Millipore, Inc. (KinaseProfiler service)
Procedure, shortened: as §1

[7] = target: T7, NEK2 (Homo sapiens, UniProt P51955)
T7 construct: purchased Millipore, Inc. (KinaseProfiler service)
Procedure, shortened: as §1

[8] = target: T8, RIPK2 (Homo sapiens, UniProt O43353)
T8 construct: purchased Millipore, Inc. (KinaseProfiler service)
Procedure, shortened: as §1

[9] = target: T9, NEK6 (Homo sapiens, UniProt Q9HC98)
T9 construct: purchased Millipore, Inc. (KinaseProfiler service)
Procedure, shortened: as §1

[10] = target: T10, PDGFRalpha (Homo sapiens, UniProt P16234)
T10 construct: purchased Millipore, Inc. (KinaseProfiler service)
Procedure, shortened: as §1

[11] = target: T11, AKT2 (Homo sapiens, UniProt P31751)
T11 construct: purchased Millipore, Inc. (KinaseProfiler service)
Procedure, shortened: as §1

[12] = target: T12, Tie2 (Homo sapiens, UniProt Q02763)
T12 construct: purchased Millipore, Inc. (KinaseProfiler service)
Procedure, shortened: as §1

[13] = target: T13, ROCK-I (Homo sapiens, UniProt Q13464)
T13 construct: purchased Millipore, Inc. (KinaseProfiler service)
Procedure, shortened: as §1

[14] = target: T14, PKCiota (Homo sapiens, UniProt P41743)
T14 construct: purchased Millipore, Inc. (KinaseProfiler service)
Procedure, shortened: as §1

[15] = target: T15, Plk3 (Homo sapiens, UniProt Q9H4B4)
T15 construct: purchased Millipore, Inc. (KinaseProfiler service)
Procedure, shortened: as §1

[16] = target: T16, ALK (Homo sapiens, UniProt Q9UM73)
T16 construct: purchased Millipore, Inc. (KinaseProfiler service)
Procedure, shortened: as §1

[17] = target: T17, PRKG1alpha (Homo sapiens, UniProt Q13976)
T17 construct: purchased Millipore, Inc. (KinaseProfiler service)
Procedure, shortened: as §1

[18] = target: T18, DCAMKL2 (Homo sapiens, UniProt Q8N568)
T18 construct: purchased Millipore, Inc. (KinaseProfiler service)
Procedure, shortened: as §1

[19] = target: T19, ITK (Homo sapiens, UniProt Q08881)
T19 construct: purchased Millipore, Inc. (KinaseProfiler service)
Procedure, shortened: as §1

[20] = target: T20, MRCKalpha (Homo sapiens, UniProt Q5VT25)
T20 construct: purchased Millipore, Inc. (KinaseProfiler service)
Procedure, shortened: as §1

[21] = target: T21, CK1gamma1 (Homo sapiens, UniProt Q9HCP0)
T21 construct: purchased Millipore, Inc. (KinaseProfiler service)
Procedure, shortened: as §1

[22] = target: T22, Haspin (Homo sapiens, UniProt Q8TF76)
T22 construct: purchased Millipore, Inc. (KinaseProfiler service)
Procedure, shortened: as §1

[23] = target: T23, Rsk2 (Homo sapiens, UniProt P51812)
T23 construct: purchased Millipore, Inc. (KinaseProfiler service)
Procedure, shortened: as §1

[24] = target: T24, KDR (Homo sapiens, UniProt P35968)
T24 construct: purchased Millipore, Inc. (KinaseProfiler service)
Procedure, shortened: as §1

[25] = target: T25, EphA1 (Homo sapiens, UniProt P21709)
T25 construct: purchased Millipore, Inc. (KinaseProfiler service)
Procedure, shortened: as §1

[26] = target: T26, Txk (Homo sapiens, UniProt P42681)
T26 construct: purchased Millipore, Inc. (KinaseProfiler service)
Procedure, shortened: as §1

[27] = target: T27, TrkB (Homo sapiens, UniProt Q16620)
T27 construct: purchased Millipore, Inc. (KinaseProfiler service)
Procedure, shortened: as §1

[28] = target: T28, DAPK3 (Homo sapiens, UniProt O43293)
T28 construct: purchased Millipore, Inc. (KinaseProfiler service)
Procedure, shortened: as §1

[29] = target: T29, LKB1 (Homo sapiens, UniProt Q15831)
T29 construct: purchased Millipore, Inc. (KinaseProfiler service)
Procedure, shortened: as §1

[30] = target: T30, NEK11 (Homo sapiens, UniProt Q8NG66)
T30 construct: purchased Millipore, Inc. (KinaseProfiler service)
Procedure, shortened: as §1

[31] = target: T31, FGFR3 (Homo sapiens, UniProt P22607)
T31 construct: purchased Millipore, Inc. (KinaseProfiler service)
Procedure, shortened: as §1

[32] = target: T32, SGK3 (Homo sapiens, UniProt Q96BR1)
T32 construct: purchased Millipore, Inc. (KinaseProfiler service)
Procedure, shortened: as §1

[33] = target: T33, Fyn (Homo sapiens, UniProt P06241)
T33 construct: purchased Millipore, Inc. (KinaseProfiler service)
Procedure, shortened: as §1

[34] = target: T34, LIMK1 (Homo sapiens, UniProt P53667)
T34 construct: purchased Millipore, Inc. (KinaseProfiler service)
Procedure, shortened: as §1

[35] = target: T35, eEF-2K (Homo sapiens, UniProt O00418)
T35 construct: purchased Millipore, Inc. (KinaseProfiler service)
Procedure, shortened: as §1

[36] = target: T36, Fgr (Homo sapiens, UniProt P09769)
T36 construct: purchased Millipore, Inc. (KinaseProfiler service)
Procedure, shortened: as §1

[37] = target: T37, MEK1 (Homo sapiens, UniProt Q02750)
T37 construct: purchased Millipore, Inc. (KinaseProfiler service)
Procedure, shortened: as §1

[38] = target: T38, CHK1 (Homo sapiens, UniProt O14757)
T38 construct: purchased Millipore, Inc. (KinaseProfiler service)
Procedure, shortened: as §1

[39] = target: T39, PKD1 (Homo sapiens, UniProt Q15139)
T39 construct: purchased Millipore, Inc. (KinaseProfiler service)
Procedure, shortened: as §1

[40] = target: T40, PKCzeta (Homo sapiens, UniProt Q05513)
T40 construct: purchased Millipore, Inc. (KinaseProfiler service)
Procedure, shortened: as §1

[41] = target: T41, IRR (Homo sapiens, UniProt P14616)
T41 construct: purchased Millipore, Inc. (KinaseProfiler service)
Procedure, shortened: as §1

T30 sequence (Q8NG66 whole entry): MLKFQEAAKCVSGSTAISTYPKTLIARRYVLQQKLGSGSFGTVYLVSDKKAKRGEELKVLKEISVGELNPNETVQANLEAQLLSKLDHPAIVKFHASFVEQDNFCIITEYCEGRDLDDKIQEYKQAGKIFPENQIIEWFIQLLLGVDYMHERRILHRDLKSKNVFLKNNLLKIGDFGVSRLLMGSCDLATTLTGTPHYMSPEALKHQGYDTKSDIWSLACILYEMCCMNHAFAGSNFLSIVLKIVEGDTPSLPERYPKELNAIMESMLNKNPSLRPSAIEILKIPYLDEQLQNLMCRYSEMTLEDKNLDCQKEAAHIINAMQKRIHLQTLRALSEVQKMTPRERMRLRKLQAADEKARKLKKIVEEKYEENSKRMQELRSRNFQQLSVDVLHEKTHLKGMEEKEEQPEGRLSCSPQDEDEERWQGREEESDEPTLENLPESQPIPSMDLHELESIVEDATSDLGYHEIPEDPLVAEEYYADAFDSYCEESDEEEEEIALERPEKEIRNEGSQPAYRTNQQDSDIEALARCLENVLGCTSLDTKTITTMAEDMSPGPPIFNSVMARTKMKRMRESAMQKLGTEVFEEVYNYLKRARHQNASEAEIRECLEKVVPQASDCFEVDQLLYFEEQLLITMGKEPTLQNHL
T17 sequence (Q13976 whole entry): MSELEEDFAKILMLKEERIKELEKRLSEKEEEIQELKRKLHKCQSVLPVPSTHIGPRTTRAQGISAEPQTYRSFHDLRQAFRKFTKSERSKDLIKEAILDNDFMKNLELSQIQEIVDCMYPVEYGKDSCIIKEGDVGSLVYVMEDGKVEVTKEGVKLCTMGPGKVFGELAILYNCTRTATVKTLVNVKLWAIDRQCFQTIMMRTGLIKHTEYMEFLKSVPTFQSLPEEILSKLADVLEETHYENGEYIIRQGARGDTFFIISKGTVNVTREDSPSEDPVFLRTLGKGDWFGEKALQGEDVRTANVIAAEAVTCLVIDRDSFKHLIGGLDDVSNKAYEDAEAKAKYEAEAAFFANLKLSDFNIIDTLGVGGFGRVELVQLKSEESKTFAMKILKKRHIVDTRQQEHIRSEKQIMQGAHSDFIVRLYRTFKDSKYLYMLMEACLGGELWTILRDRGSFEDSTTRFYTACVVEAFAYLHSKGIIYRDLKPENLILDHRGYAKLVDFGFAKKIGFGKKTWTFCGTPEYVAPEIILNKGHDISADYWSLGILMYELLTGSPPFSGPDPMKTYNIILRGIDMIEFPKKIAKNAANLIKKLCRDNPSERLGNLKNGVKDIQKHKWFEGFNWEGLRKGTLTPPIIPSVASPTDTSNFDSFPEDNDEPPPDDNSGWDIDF
T10 sequence (P16234 24-1089): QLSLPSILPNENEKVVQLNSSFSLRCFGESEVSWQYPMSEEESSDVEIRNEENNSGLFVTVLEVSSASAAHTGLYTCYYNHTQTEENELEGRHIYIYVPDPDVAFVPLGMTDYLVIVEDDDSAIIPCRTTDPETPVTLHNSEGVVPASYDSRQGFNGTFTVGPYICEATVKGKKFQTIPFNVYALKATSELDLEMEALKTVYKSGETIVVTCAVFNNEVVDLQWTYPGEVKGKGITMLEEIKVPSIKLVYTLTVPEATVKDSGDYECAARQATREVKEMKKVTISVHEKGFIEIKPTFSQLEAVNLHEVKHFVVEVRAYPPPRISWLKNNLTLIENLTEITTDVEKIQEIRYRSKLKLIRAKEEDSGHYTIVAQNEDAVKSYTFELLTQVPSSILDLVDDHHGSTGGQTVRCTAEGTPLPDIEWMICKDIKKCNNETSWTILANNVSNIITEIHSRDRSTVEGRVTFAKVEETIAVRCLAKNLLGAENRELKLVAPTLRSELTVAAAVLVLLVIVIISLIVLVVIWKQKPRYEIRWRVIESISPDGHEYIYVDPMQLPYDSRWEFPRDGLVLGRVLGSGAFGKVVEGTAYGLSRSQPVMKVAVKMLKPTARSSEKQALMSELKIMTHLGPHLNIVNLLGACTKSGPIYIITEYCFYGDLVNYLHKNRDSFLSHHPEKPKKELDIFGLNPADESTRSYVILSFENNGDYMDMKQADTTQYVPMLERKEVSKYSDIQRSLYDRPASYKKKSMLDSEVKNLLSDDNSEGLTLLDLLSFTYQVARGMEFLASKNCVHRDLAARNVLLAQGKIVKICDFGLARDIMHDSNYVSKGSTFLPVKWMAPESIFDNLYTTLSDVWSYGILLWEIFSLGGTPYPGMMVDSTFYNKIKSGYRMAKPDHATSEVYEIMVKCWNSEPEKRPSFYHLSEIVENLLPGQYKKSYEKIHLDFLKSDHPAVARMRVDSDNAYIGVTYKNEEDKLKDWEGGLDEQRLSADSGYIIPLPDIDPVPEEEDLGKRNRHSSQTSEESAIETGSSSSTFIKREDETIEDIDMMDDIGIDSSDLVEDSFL
T13 sequence (Q13464 whole entry): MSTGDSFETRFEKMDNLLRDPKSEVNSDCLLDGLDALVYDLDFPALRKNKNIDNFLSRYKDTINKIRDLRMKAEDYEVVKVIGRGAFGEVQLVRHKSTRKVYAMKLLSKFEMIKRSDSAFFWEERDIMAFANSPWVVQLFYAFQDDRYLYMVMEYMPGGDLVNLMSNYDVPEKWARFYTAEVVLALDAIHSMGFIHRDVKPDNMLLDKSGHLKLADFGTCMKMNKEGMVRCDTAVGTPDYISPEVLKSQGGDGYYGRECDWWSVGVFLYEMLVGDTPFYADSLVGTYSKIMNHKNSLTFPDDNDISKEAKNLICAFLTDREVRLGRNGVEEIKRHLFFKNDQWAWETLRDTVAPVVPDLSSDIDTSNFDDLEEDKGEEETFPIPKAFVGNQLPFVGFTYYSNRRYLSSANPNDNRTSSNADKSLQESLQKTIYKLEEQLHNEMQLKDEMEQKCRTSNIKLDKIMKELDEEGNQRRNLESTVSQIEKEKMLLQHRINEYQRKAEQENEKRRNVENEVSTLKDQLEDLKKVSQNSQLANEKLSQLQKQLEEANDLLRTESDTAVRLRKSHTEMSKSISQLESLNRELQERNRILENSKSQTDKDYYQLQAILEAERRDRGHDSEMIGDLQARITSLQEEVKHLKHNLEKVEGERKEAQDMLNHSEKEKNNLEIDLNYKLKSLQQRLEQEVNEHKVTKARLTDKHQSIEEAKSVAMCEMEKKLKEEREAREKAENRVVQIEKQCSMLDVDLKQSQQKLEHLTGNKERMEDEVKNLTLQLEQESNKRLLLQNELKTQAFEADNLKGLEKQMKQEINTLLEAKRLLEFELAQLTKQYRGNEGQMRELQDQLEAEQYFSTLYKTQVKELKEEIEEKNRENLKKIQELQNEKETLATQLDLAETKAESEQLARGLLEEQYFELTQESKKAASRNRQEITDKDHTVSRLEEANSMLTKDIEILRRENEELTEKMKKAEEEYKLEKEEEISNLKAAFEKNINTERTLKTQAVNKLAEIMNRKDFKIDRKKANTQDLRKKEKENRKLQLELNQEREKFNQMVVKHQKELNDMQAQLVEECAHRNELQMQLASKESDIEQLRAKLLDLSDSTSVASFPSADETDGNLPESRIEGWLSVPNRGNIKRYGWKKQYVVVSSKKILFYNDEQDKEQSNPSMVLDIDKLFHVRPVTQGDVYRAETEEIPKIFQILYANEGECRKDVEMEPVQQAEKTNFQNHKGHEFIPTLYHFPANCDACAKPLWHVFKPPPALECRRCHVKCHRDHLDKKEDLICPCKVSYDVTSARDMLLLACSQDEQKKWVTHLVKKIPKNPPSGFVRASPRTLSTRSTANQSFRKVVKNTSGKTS
T5 sequence (Q6PHR2 whole entry): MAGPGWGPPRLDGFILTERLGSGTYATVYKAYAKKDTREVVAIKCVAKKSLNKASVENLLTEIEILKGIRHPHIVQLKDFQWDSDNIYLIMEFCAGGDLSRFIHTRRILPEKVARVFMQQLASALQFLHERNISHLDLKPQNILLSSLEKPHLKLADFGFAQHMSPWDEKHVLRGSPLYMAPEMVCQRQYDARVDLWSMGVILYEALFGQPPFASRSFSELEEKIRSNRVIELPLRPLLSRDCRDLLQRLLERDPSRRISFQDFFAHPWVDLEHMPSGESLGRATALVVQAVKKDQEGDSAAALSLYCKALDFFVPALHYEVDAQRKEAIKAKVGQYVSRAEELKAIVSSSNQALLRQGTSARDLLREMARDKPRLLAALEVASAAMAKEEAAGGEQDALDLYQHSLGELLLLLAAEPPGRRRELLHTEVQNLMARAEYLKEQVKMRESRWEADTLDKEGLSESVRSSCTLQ
T2 sequence (P07948 whole entry): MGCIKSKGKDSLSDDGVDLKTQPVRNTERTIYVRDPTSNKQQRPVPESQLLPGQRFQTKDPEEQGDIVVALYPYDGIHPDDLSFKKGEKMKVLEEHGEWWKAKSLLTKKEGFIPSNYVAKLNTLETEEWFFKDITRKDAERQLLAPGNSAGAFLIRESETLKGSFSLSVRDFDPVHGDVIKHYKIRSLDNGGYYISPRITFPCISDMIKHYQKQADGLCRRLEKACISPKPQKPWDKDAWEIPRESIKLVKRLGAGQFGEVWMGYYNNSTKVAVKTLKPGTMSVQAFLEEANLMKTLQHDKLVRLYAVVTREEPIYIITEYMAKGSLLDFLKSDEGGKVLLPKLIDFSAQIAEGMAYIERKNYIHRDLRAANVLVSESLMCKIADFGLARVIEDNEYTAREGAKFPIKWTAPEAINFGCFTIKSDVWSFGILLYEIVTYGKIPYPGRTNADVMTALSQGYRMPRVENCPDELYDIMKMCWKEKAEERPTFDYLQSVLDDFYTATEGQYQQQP
T9 sequence (Q9HC98 whole entry): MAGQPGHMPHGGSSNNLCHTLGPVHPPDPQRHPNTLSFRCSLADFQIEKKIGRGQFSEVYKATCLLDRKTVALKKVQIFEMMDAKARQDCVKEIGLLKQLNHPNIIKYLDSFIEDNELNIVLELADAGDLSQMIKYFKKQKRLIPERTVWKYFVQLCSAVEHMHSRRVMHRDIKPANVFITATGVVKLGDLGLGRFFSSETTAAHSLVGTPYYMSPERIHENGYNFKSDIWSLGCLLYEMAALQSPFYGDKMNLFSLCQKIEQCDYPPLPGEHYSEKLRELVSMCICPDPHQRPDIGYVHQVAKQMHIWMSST

COCCN1C[C@@H](NC(=O)Nc2c(C)c(-c3cnc(C)nc3)nn2-c2ccccc2)[C@H](c2cccc(F)c2)C1 [Compound 1, 1-((3S,4R)-4-(3-fluorophenyl)-1-(2-methoxyethyl)pyrrolidin-3-yl)-3-(4-methyl-3-(2-methylpyrimidin-5-yl)-1-phenyl-1H-pyrazol-5-yl)urea]
Avg POC [1]: 100 POC
Avg POC [2]: 104.5 POC
Avg POC [3]: 120 POC
Avg POC [4]: 103.5 POC
Avg POC [5]: 107.5 POC
Avg POC [6]: 115.5 POC
Avg POC [7]: 95 POC
Avg POC [8]: 90.5 POC
Avg POC [9]: 96 POC
Avg POC [10]: 96 POC
Avg POC [11]: 104.5 POC
Avg POC [12]: 82 POC
Avg POC [13]: 98.5 POC
Avg POC [14]: 91 POC
Avg POC [15]: 100.5 POC
Avg POC [16]: 89 POC
Avg POC [17]: 109.5 POC
Avg POC [18]: 135 POC
Avg POC [19]: 104 POC
Avg POC [20]: 90.5 POC
Avg POC [21]: 78.5 POC
Avg POC [22]: 96.5 POC
Avg POC [23]: 93 POC
Avg POC [24]: 102.5 POC
Avg POC [25]: 94.5 POC
Avg POC [26]: 67 POC
Avg POC [27]: 1.5 POC
Avg POC [28]: 105.5 POC
Avg POC [29]: 104.5 POC
Avg POC [30]: 94 POC
Avg POC [31]: 108 POC
Avg POC [32]: 112.5 POC
Avg POC [33]: 96.5 POC
Avg POC [34]: 98 POC
Avg POC [35]: 112.5 POC
Avg POC [36]: 106 POC
Avg POC [37]: 103.5 POC
Avg POC [38]: 109 POC
Avg POC [39]: 94.5 POC
Avg POC [40]: 97.5 POC
Avg POC [41]: 104.5 POC
